Assay [1] has as its target T1, Gag-Pol polyprotein [600-1027,P835L]/[600-1155,P835L] (Human immunodeficiency virus 1, UniProt P03366, P835L).
T1 construct: 600-1027; 600-1155
Briefly: HIV-1 RT Assay. The text has this:
(§1) The IC50 of reverse transcriptase is the concentration that inhibits 50% of recombinant HIV-1 RT RNA-directed DNA polymerase activity in vitro.

Assay [2] addresses T2, Gag-Pol polyprotein [600-1027,Y787L]/[600-1155,Y787L] (Human immunodeficiency virus 1, UniProt P03366, Y787L).
T2 construct: 600-1027; 600-1155
The experiment in a line: HIV-1 RT Assay. The settings on record: pH 7.8; 22 °C.
From the text: as §1

Structures are written as SMILES. A value given as a limit tells only on which side of the number the result lay.

A word on the IC50: it is the midpoint of a concentration-inhibition curve. Higher therefore signals weaker potency in that assay. Turning to `CCN1c2ncccc2C(=O)N(C)c2ccc(-c3cc[nH]c3)nc21` [2-ethyl-9-methyl-5-(1H-pyrrol-3-yl)-2,4,9,15-tetraazatricyclo[9.4.0.0^{3,8}]pentadeca-1(11),3(8),4,6,12,14-hexaen-10-one], the values for the IC50 in assay [1] and in assay [2] were 130 nM and 100 nM, respectively. Consider `CCN1c2ncccc2C(=O)N(C)c2ccc(-c3c[nH]c4cnccc34)nc21` [2-ethyl-9-methyl-5-{1H-pyrrolo[2,3-c]pyridin-3-yl}-2,4,9,15-tetraazatricyclo[9.4.0.0^{3,8}]pentadeca-1(11),3(8),4,6,12,14-hexaen-10-one], for which the IC50 in assay [1] is below 1 nM.

The values above are taken from BindingDB's records for doi:10.1021/jm960837y (Boehringer Ingelheim Pharmaceuticals, 1997).
